Test results as given in US9695155B2, “Herbicidal substituted pyrimidinyloxy benzene compounds” (E. I. DU PONT DE NEMOURS AND COMPANY, priority 2013, dated 2017).

What was measured:
large (Lg) crabgrass [1] = assay: Test A preemergence; assay type: in vivo, Digitaria sanguinalis; conditions: for Crabgrass, Large plant response rating: 500 g ai/ha
Summary of the method: (§1)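 Injury scores run from 0, no effect, to 100, complete control, judged by eye against untreated plants roughly 10 days after treatment. Chemicals carried a surfactant in a non-phytotoxic solvent and went onto loam–sand soil preemergence or onto one- to two-leaf seedlings postemergence.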

large (Lg) crabgrass [2] = assay: Test A postemergence; assay type: in vivo, Digitaria sanguinalis
Summary of the method: as §1

wheat [3] = assay: Test A postemergence; assay type: in vivo, Triticum aestivum
Summary of the method: as §1

corn [4] = assay: Test A postemergence; assay type: in vivo, Zea mays
Summary of the method: as §1

morningglory [5] = assay: Test A preemergence; assay type: in vivo, Ipomoea spp.; conditions: for Morningglory plant response rating: 500 g ai/ha
Summary of the method: as §1

morningglory [6] = assay: Test A postemergence; assay type: in vivo, Ipomoea spp.
Summary of the method: as §1

pigweed [7] = assay: Test A preemergence; assay type: in vivo, Amaranthus retroflexus; conditions: for Pigweed plant response rating: 500 g ai/ha
Summary of the method: as §1

velvetleaf [8] = assay: Test A preemergence; assay type: in vivo, Abutilon theophrasti; conditions: for Velvetleaf plant response rating: 500 g ai/ha
Summary of the method: as §1

giant foxtail [9] = assay: Test A postemergence; assay type: in vivo, Setaria faberii
Summary of the method: as §1

sedge, umbrella = assay: Test B flooded paddy test; assay type: in vivo, Cyperus difformis; conditions: Flood, 250 g ai/ha; 0 to 100 scale where 0 is no effect and 100 is complete control
Summary of the method: (§2)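 Greenhouse flooded-pot test: compounds dosed into 3 cm standing water over 2-leaf plants, flood held constant. Rated visually after 13–15 days on 0–100 (complete control = 100); a dash marks no test result.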

velvetleaf [10] = assay: Test A postemergence; assay type: in vivo, Abutilon theophrasti
Summary of the method: as §1

barnyardgrass [11] = assay: Test A preemergence; assay type: in vivo, Echinochloa crus-galli; conditions: for Barnyardgrass plant response rating: 500 g ai/ha
Summary of the method: as §1

giant foxtail [12] = assay: Test A preemergence; assay type: in vivo, Setaria faberii; conditions: for Foxtail, Giant plant response rating: 500 g ai/ha
Summary of the method: as §1

barnyardgrass [13] = assay: Test A postemergence; assay type: in vivo, Echinochloa crus-galli
Summary of the method: as §1

pigweed [14] = assay: Test A postemergence; assay type: in vivo, Amaranthus retroflexus
Summary of the method: as §1

Heteranthera limosa = assay: Test B flooded paddy test; assay type: in vivo; conditions: Flood, 250 g ai/ha; 0 to 100 scale where 0 is no effect and 100 is complete control
Summary of the method: as §2

rice = assay: Test B flooded paddy test; assay type: in vivo, Oryza sativa; conditions: Flood, 250 g ai/ha; 0 to 100 scale where 0 is no effect and 100 is complete control
Summary of the method: as §2

barnyardgrass [15] = assay: Test B flooded paddy test; assay type: in vivo, Echinochloa crus-galli; conditions: Flood, 250 g ai/ha; 0 to 100 scale where 0 is no effect and 100 is complete control
Summary of the method: as §2

wheat [16] = assay: Test A preemergence; assay type: in vivo, Triticum aestivum; conditions: for Wheat plant response rating: 500 g ai/ha
Summary of the method: as §1

corn [17] = assay: Test A preemergence; assay type: in vivo, Zea mays; conditions: for Corn plant response rating: 500 g ai/ha
Summary of the method: as §1

[18] = 125 g ai/ha, 0 to 100 scale where 0 is no effect and 100 is complete control
[19] = 0 to 100 scale, 0 no effect, 100 complete control, approx. 10 days
[20] = 500 g ai/ha, 0 to 100 scale, 0 no effect, 100 complete control
[21] = 0 to 100 scale where 0 is no effect and 100 is complete control
[22] = 500 g ai/ha, 0 to 100 scale where 0 is no effect and 100 is complete control

Compound: Clc1cnc(Oc2ccccc2-n2cc(Br)c(Br)n2)nc1 [Compound 19]
- Plant response rating, Crabgrass, Large (large (Lg) crabgrass [1]; [18]): 0
- Crabgrass, Large plant response rating (large (Lg) crabgrass [1]; [19]): 90
- Plant response rating, Crabgrass, Large (large (Lg) crabgrass [2]; [18]): 0
- Plant response rating, Crabgrass, Large (large (Lg) crabgrass [2]; [20]): 20
- Plant response rating, Wheat (wheat [3]; [18]): 0
- Plant response rating, Wheat (wheat [3]; [20]): 0
- Plant response rating, Corn (corn [4]; [18]): 0
- Plant response rating, Corn (corn [4]; [20]): 30
- Plant response rating, Morningglory (morningglory [5]; [18]): 0
- Morningglory plant response rating (morningglory [5]; [19]): 0
- Plant response rating, Morningglory (morningglory [6]; [18]): 0
- Plant response rating, Morningglory (morningglory [6]; [20]): 40
- Plant response rating, Pigweed (pigweed [7]; [18]): 0
- Pigweed plant response rating (pigweed [7]; [19]): 100
- Plant response rating, Velvetleaf (velvetleaf [8]; [18]): 0
- Velvetleaf plant response rating (velvetleaf [8]; [19]): 20
- Plant response rating, Foxtail, Giant (giant foxtail [9]; [18]): 0
- Plant response rating, Foxtail, Giant (giant foxtail [9]; [20]): 30
- Plant response rating, Sedge, Umbrella (sedge, umbrella): 30
- Plant response rating, Velvetleaf (velvetleaf [10]; [18]): 30
- Plant response rating, Velvetleaf (velvetleaf [10]; [20]): 60
- Plant response rating, Barnyardgrass (barnyardgrass [11]; [18]): 0
- Barnyardgrass plant response rating (barnyardgrass [11]; [19]): 20
- Plant response rating, Foxtail, Giant (giant foxtail [12]; [18]): 20
- Foxtail, Giant plant response rating (giant foxtail [12]; [19]): 90
- Plant response rating, Barnyardgrass (barnyardgrass [13]; [18]): 0
- Plant response rating, Barnyardgrass (barnyardgrass [13]; [20]): 20
- Plant response rating, Pigweed (pigweed [14]; [18]): 30
- Plant response rating, Pigweed (pigweed [14]; [20]): 90
- Plant response rating, Ducksalad (Heteranthera limosa): 40
- Plant response rating, Rice (rice): 20
- Plant response rating, Barnyardgrass (barnyardgrass [15]): 0
- Plant response rating, Wheat (wheat [16]; [18]): 0
- Wheat plant response rating (wheat [16]; [19]): 0
- Plant response rating, Corn (corn [17]; [18]): 0
- Corn plant response rating (corn [17]; [19]): 0

Compound: CC(C)(C)c1ccn(-c2ccccc2Oc2ncc(Br)cn2)n1 [Compound 30]
- Plant response rating, Crabgrass, Large (large (Lg) crabgrass [1]; [18]): 40
- Crabgrass, Large plant response rating (large (Lg) crabgrass [1]; [19]): 60
- Plant response rating, Crabgrass, Large (large (Lg) crabgrass [2]; [18]): 30
- Plant response rating, Crabgrass, Large (large (Lg) crabgrass [2]; [20]): 40
- Plant response rating, Wheat (wheat [3]; [18]): 0
- Plant response rating, Wheat (wheat [3]; [20]): 0
- Plant response rating, Corn (corn [4]; [18]): 0
- Plant response rating, Corn (corn [4]; [20]): 0
- Plant response rating, Morningglory (morningglory [5]; [18]): 0
- Morningglory plant response rating (morningglory [5]; [19]): 0
- Plant response rating, Morningglory (morningglory [6]; [18]): 0
- Plant response rating, Morningglory (morningglory [6]; [20]): 0
- Plant response rating, Pigweed (pigweed [7]; [18]): 0
- Pigweed plant response rating (pigweed [7]; [19]): 0
- Plant response rating, Velvetleaf (velvetleaf [8]; [18]): 10
- Velvetleaf plant response rating (velvetleaf [8]; [19]): 40
- Plant response rating, Foxtail, Giant (giant foxtail [9]; [18]): 10
- Plant response rating, Foxtail, Giant (giant foxtail [9]; [20]): 10
- Plant response rating, Sedge, Umbrella (sedge, umbrella): 0
- Plant response rating, Velvetleaf (velvetleaf [10]; [18]): 20
- Plant response rating, Velvetleaf (velvetleaf [10]; [20]): 30
- Plant response rating, Barnyardgrass (barnyardgrass [11]; [18]): 0
- Barnyardgrass plant response rating (barnyardgrass [11]; [19]): 10
- Plant response rating, Foxtail, Giant (giant foxtail [12]; [18]): 0
- Foxtail, Giant plant response rating (giant foxtail [12]; [19]): 30
- Plant response rating, Barnyardgrass (barnyardgrass [13]; [18]): 10
- Plant response rating, Barnyardgrass (barnyardgrass [13]; [20]): 10
- Plant response rating, Pigweed (pigweed [14]; [18]): 0
- Plant response rating, Pigweed (pigweed [14]; [20]): 30
- Plant response rating, Ducksalad (Heteranthera limosa): 0
- Plant response rating, Rice (rice): 0
- Plant response rating, Barnyardgrass (barnyardgrass [15]): 0
- Plant response rating, Wheat (wheat [16]; [18]): 0
- Wheat plant response rating (wheat [16]; [19]): 0
- Plant response rating, Corn (corn [17]; [18]): 0
- Corn plant response rating (corn [17]; [19]): 0

Compound: N#Cc1ccc(Oc2ncc(Cl)cn2)c(-n2cc(Br)cn2)c1 [Compound 213]
- Crabgrass, Large plant response rating (0 to 100 scale) (large (Lg) crabgrass [1]; 125 g ai/ha): 10
- Crabgrass, Large plant response rating (large (Lg) crabgrass [1]; [21]): 100
- Crabgrass, Large plant response rating (large (Lg) crabgrass [2]; [18]): 20
- Plant response rating, Crabgrass, Large (large (Lg) crabgrass [2]; [22]): 70
- Wheat plant response rating (wheat [3]; [18]): 0
- Plant response rating, Wheat (wheat [3]; [22]): 0
- Corn plant response rating (corn [4]; [18]): 0
- Plant response rating, Corn (corn [4]; [22]): 30
- Morningglory plant response rating (0 to 100 scale) (morningglory [5]; 125 g ai/ha): 0
- Morningglory plant response rating (morningglory [5]; [21]): 10
- Morningglory plant response rating (morningglory [6]; [18]): 20
- Plant response rating, Morningglory (morningglory [6]; [22]): 30
- Pigweed plant response rating (0 to 100 scale) (pigweed [7]; 125 g ai/ha): 50
- Pigweed plant response rating (pigweed [7]; [21]): 100
- Velvetleaf plant response rating (0 to 100 scale) (velvetleaf [8]; 125 g ai/ha): 0
- Velvetleaf plant response rating (velvetleaf [8]; [21]): 0
- Foxtail, Giant plant response rating (giant foxtail [9]; [18]): 10
- Plant response rating, Foxtail, Giant (giant foxtail [9]; [22]): 30
- Plant response rating, Sedge, Umbrella (sedge, umbrella): 70
- Velvetleaf plant response rating (velvetleaf [10]; [18]): 10
- Plant response rating, Velvetleaf (velvetleaf [10]; [22]): 20
- Barnyardgrass plant response rating (0 to 100 scale, 0 is no effect, 100 is complete control) (barnyardgrass [11]; 125 g ai/ha): 0
- Barnyardgrass plant response rating (barnyardgrass [11]; [21]): 10
- Foxtail, Giant plant response rating (0 to 100 scale) (giant foxtail [12]; 125 g ai/ha): 20
- Foxtail, Giant plant response rating (giant foxtail [12]; [21]): 100
- Barnyardgrass plant response rating (barnyardgrass [13]; [18]): 0
- Plant response rating, Barnyardgrass (barnyardgrass [13]; [22]): 10
- Pigweed plant response rating (pigweed [14]; [18]): 100
- Plant response rating, Pigweed (pigweed [14]; [22]): 100
- Plant response rating, Ducksalad (Heteranthera limosa): 0
- Plant response rating, Rice (rice): 0
- Plant response rating, Barnyardgrass (barnyardgrass [15]): 0
- Wheat plant response rating (0 to 100 scale) (wheat [16]; 125 g ai/ha): 0
- Wheat plant response rating (wheat [16]; [21]): 0
- Corn plant response rating (0 to 100 scale) (corn [17]; 125 g ai/ha): 0
- Corn plant response rating (corn [17]; [21]): 0
